Data set [1] in a line: pharmacokinetic study on guinea pigs under urethane anaesthesia, oral administration of dextrorphan citrate and tartrate; plasma dextrorphan by HPLC after β-glucuronidase hydrolysis. The format is in vivo. The protocol: The results from a pharmacokinetic study effected on guinea pigs under urethane anesthaesia, to which dextrorphan citrate and tartrate had been administered by the oral route, are reported hereinbelow in order to show the good bioavailability of dextrorphan salts.
Dextrorphan dosages were measured by a high pressure liquid chromatography method.
The plasma samples were subjected, before the extraction, to enzymatic hydrolysis with β-glucuronidase, according to the method reported by T.EAST and D.DYE (Journal of Chromatography Biomedical Applications 388, 99-112, 1985).
After hydrolysis, plasma samples were alkalinized with sodium carbonate and extracted with benzene; benzene was re-extracted with 0.5 ml of 0.1 NHCl and 100 mcl were chromatographed under the following conditions:
COLUMN: Lichrosorb RP Select B Merck 5 λ, 25 cm ×4 mm inn. d.
MOBILE PHASE: Octanesulphonic acid sodium salt 0.01M solution in water. Acetonitrile mixture (68-32% ). The solution was then buffered to pH 3 with phosphoric acid.
DETECTOR: F 1000 MERCK HITACHI Fluorimeter exc.=280 nm; em.=310 nm

For another data set, the system named is opiaceous receptors. The following applies: background; cited from earlier work.
For data set [2] the following is noted: background; cited from earlier work.
The conditions of data set [3]: previously reported; cited from earlier work.
For data set [4] the following is noted: background; cited from earlier work. This is another data set of the same source.
For data set [5] the following is noted: background; compared with dextromethorphan; cited from earlier work.

Counter-ions that a name gives are not always drawn.

Consider `CN1CC[C@@]23CCCC[C@@H]2[C@@H]1Cc1ccc(O)cc13` [Dextrorphan citrate], for which the oral absorption entry in data set [1] (in words) is “effectively absorbed”.

As for `CN1CC[C@@]23CCCC[C@@H]2[C@@H]1Cc1ccc(O)cc13` [Dextrorphan], the “affinity to the opiaceous receptors” value with opiaceous receptors is “lack of analgesic activity and of affinity to the opiaceous receptors”. The antitussive action result in data set [2] is listed as “remarkable antitussive action”. Moreover, the “use by the oral route” value in data set [3] is listed as “not to be conveniently used by the oral route”. In data set [4], the analgesic activity result is recorded as “lack of analgesic activity”. For the same compound, the concentration at 0.25 h in data set [1] (guinea pig, plasma, po, Table 2 (dextrorphan tartrate by order of b16), 15 minutes, read-out: Dextrorphan hematic levels) turned out to be 10 ng/mL. Besides, in data set [1] (guinea pig, plasma, po, Table 2 (dextrorphan tartrate by order of b16), 30 minutes, read-out: Dextrorphan hematic levels), the concentration at 0.5 h was determined as 470 ng/mL. The concentration at 1 h in data set [1] (guinea pig, plasma, po, Table 2 (dextrorphan tartrate by order of b16), 60 minutes, read-out: Dextrorphan hematic levels) worked out at 2500 ng/mL. Moreover, the concentration at 2 h in data set [1] (guinea pig, plasma, po, Table 2 (dextrorphan tartrate by order of b16), 120 minutes, read-out: Dextrorphan hematic levels) worked out at 3800 ng/mL. Further, the concentration at 3 h in data set [1] (guinea pig, plasma, po, Table 2 (dextrorphan tartrate by order of b16), 180 minutes, read-out: Dextrorphan hematic levels) amounted to 3000 ng/mL. In data set [1] (guinea pig, plasma, po, Table 2 (dextrorphan tartrate by order of b16), 300 minutes, read-out: Dextrorphan hematic levels), the concentration at 5 h was 3800 ng/mL. In data set [5], the toxicity result is reported as “very low toxicity, even lower than that of dextromethorphan”.

(Values after patent US5013554A, “Oral pharmaceutical compositions containing dextrophan salts” (Prodotti Formenti s.r.l., priority 1988, dated 1991).)
